PubChem BioAssay AID1259407 (Chemical Carcinogenesis Research Information System (CCRIS), 2018)
Active and inactive are the calls of the source. How the calls were made is not given here.

Tested on: CCRIS mutagenicity, Ames/micronucleus/aberration tests
Assay: CCRIS mutagenicity studies
[1] = Test System: AMES SALMONELLA TYPHIMURIUM, Strain/Indicator: TA98, Metabolic Activation: NONE, Method: PREINCUBATION
[2] = Test System: AMES SALMONELLA TYPHIMURIUM, Strain/Indicator: TA100, Metabolic Activation: NONE, Method: PREINCUBATION
[3] = Test System: AMES SALMONELLA TYPHIMURIUM, Strain/Indicator: TA1535, Metabolic Activation: NONE, Method: PREINCUBATION
[4] = Test System: AMES SALMONELLA TYPHIMURIUM, Strain/Indicator: TA1537, Metabolic Activation: NONE, Method: PREINCUBATION

SMILES: CNc1ccc(O)cc1
- mutagenic call (Test System: AMES SALMONELLA TYPHIMURIUM, Strain/Indicator: TA97, Metabolic Activation: HAMSTER, LIVER, AROCLOR 1254 (10%), Method: PREINCUBATION): inactive; negative
- mutagenic call (Test System: AMES SALMONELLA TYPHIMURIUM, Strain/Indicator: TA97, Metabolic Activation: NONE, Method: PREINCUBATION): inactive; negative
- mutagenic call (Test System: AMES SALMONELLA TYPHIMURIUM, Strain/Indicator: TA97, Metabolic Activation: RAT, LIVER, S-9, AROCLOR 1254 (10%), Method: PREINCUBATION): active; positive
- mutagenic call (Test System: AMES SALMONELLA TYPHIMURIUM, Strain/Indicator: TA98, Metabolic Activation: HAMSTER, LIVER, S-9, AROCLOR 1254 (10%), Method: PREINCUBATION): inactive; negative
- mutagenic call [1]: inactive; negative
- mutagenic call (Test System: AMES SALMONELLA TYPHIMURIUM, Strain/Indicator: TA98, Metabolic Activation: RAT, LIVER, S-9, AROCLOR 1254 (10%), Method: PREINCUBATION): inactive; negative
- mutagenic call [2]: inactive; negative
- mutagenic call (Test System: AMES SALMONELLA TYPHIMURIUM, Strain/Indicator: TA100, Metabolic Activation: RAT, LIVER, S-9, AROCLOR 1254 (10%), Method: PREINCUBATION): inactive; negative
- mutagenic call (Test System: AMES SALMONELLA TYPHIMURIUM, Strain/Indicator: TA1535, Metabolic Activation: HAMSTER, LIVER, S-9, AROCLOR 1254 (10%), Method: PREINCUBATION): inactive; negative
- mutagenic call [3]: inactive; negative
- mutagenic call (Test System: AMES SALMONELLA TYPHIMURIUM, Strain/Indicator: TA1535, Metabolic Activation: RAT, LIVER, S-9, AROCLOR 1254 (10%), Method: PREINCUBATION): inactive; negative
- mutagenic call (Test System: AMES SALMONELLA TYPHIMURIUM, Strain/Indicator: TA1537, Metabolic Activation: HAMSTER, LIVER, S-9, AROCLOR 1254 (10%), Method: PREINCUBATION): active; positive
- mutagenic call [4]: inactive; negative
- mutagenic call (Test System: AMES SALMONELLA TYPHIMURIUM, Strain/Indicator: TA1537, Metabolic Activation: RAT, LIVER, S-9, AROCLOR 1254 (10%), Method: PREINCUBATION): active; positive

SMILES: Cc1cc(-c2ccc(N/N=C3\C=Cc4c(S(=O)(=O)O)cc(S(=O)(=O)O)c(N)c4C3=O)c(C)c2)ccc1N/N=C1\C=Cc2c(S(=O)(=O)O)cc(S(=O)(=O)O)c(N)c2C1=O
- mutagenic call (Test System: AMES SALMONELLA TYPHIMURIUM, Strain/Indicator: TA98, Metabolic Activation: HAMSTER, LIVER, S-9, Method: PREINCUBATION (PRIVAL METHOD)): active; positive
- mutagenic call (Test System: AMES SALMONELLA TYPHIMURIUM, Strain/Indicator: TA100, Metabolic Activation: HAMSTER, LIVER, S-9, Method: PREINCUBATION (PRIVAL METHOD)): active; positive
- mutagenic call (Test System: MOUSE LYMPHOMA, Strain/Indicator: L5178Y (TK+/TK-), Metabolic Activation: NONE, Method: SUSPENSION/PLATE): active; positive. reevaluation of results: equivocal
- mutagenic call (Test System: Mouse lymphoma, Strain/Indicator: L5178Y (tk+/tk-), Metabolic Activation: Rat, Liver, S-9, Aroclor 1254, Method: Suspension/plate): inactive; negative

SMILES: CC(=O)N[C@@H](CC(=O)O)C(=O)O
- mutagenic call (End Point: In vivo micronucleus, Test System: Bone marrow erythrocytes, Species: Mouse, Strain/Sex: Crl:CD1 (ICR)/Male and female, Route: Oral): inactive; negative
- mutagenic call (Test System: Ames Salmonella typhimurium, Strain/Indicator: TA98, Metabolic Activation: None, Method: Standard plate): inactive; negative
- mutagenic call (Test System: Ames Salmonella typhimurium, Strain/Indicator: TA98, Metabolic Activation: Rat, Liver, S-9, Aroclor 1254 (10%), Method: Standard plate): inactive; negative
- mutagenic call (Test System: Ames Salmonella typhimurium, Strain/Indicator: TA100, Metabolic Activation: None, Method: Standard plate): inactive; negative
- mutagenic call (Test System: Ames Salmonella typhimurium, Strain/Indicator: TA100, Metabolic Activation: Rat, Liver, S-9, Aroclor 1254 (10%), Method: Standard plate): inactive; negative
- mutagenic call (Test System: Ames Salmonella typhimurium, Strain/Indicator: TA1535, Metabolic Activation: None, Method: Standard plate): inactive; negative
- mutagenic call (Test System: Ames Salmonella typhimurium, Strain/Indicator: TA1535, Metabolic Activation: Rat, Liver, S-9, Aroclor 1254 (10%), Method: Standard plate): inactive; negative
- mutagenic call (Test System: Ames Salmonella typhimurium, Strain/Indicator: TA1537, Metabolic Activation: None, Method: Standard plate): inactive; negative
- mutagenic call (Test System: Ames Salmonella typhimurium, Strain/Indicator: TA1537, Metabolic Activation: Rat, Liver, S-9, Aroclor 1254 (10%), Method: Standard plate): inactive; negative
- mutagenic call (Test System: E. coli, Strain/Indicator: WP2 uvrA, Metabolic Activation: None, Method: Standard plate): inactive; negative
- mutagenic call (Test System: E. coli, Strain/Indicator: WP2 uvrA, Metabolic Activation: Rat, Liver, S-9, Aroclor 1254 (10%), Method: Standard plate): inactive; negative

SMILES: Cc1nc2c(ccc3ccc4ccc(O)cc4c32)[nH]1
- mutagenic call (Test System: AMES SALMONELLA TYPHIMURIUM, Strain/Indicator: TA98, Metabolic Activation: RAT, LIVER, S-9, AROCLOR 1254, Method: STANDARD PLATE): active; positive
- mutagenic call (Test System: AMES SALMONELLA TYPHIMURIUM, Strain/Indicator: TA98, Metabolic Activation: RAT, LIVER, S-9, AROCLOR, Method: STANDARD PLATE): active; positive

SMILES: [O]=[W](=[O])([OH])[OH]
- mutagenic call [1]: inactive; negative
- mutagenic call (Test System: AMES SALMONELLA TYPHIMURIUM, Strain/Indicator: TA98, Metabolic Activation: RAT LIVER S-9, PHENOBARBITAL AND BETA-NAPHTHOFLAVONE, Method: PREINCUBATION): inactive; negative
- mutagenic call [2]: inactive; negative
- mutagenic call (Test System: AMES SALMONELLA TYPHIMURIUM, Strain/Indicator: TA100, Metabolic Activation: RAT LIVER S-9, PHENOBARBITAL AND BETA-NAPHTHOFLAVONE, Method: PREINCUBATION): inactive; negative
- mutagenic call [3]: inactive; negative
- mutagenic call (Test System: AMES SALMONELLA TYPHIMURIUM, Strain/Indicator: TA1535, Metabolic Activation: RAT LIVER S-9, PHENOBARBITAL AND BETA-NAPHTHOFLAVONE, Method: PREINCUBATION): inactive; negative
- mutagenic call [4]: inactive; negative
- mutagenic call (Test System: AMES SALMONELLA TYPHIMURIUM, Strain/Indicator: TA1537, Metabolic Activation: RAT LIVER S-9, PHENOBARBITAL AND BETA-NAPHTHOFLAVONE, Method: PREINCUBATION): inactive; negative
- mutagenic call (Test System: AMES SALMONELLA TYPHIMURIUM, Strain/Indicator: TA1538, Metabolic Activation: NONE, Method: PREINCUBATION): inactive; negative
- mutagenic call (Test System: AMES SALMONELLA TYPHIMURIUM, Strain/Indicator: TA1538, Metabolic Activation: RAT LIVER S-9, PHENOBARBITAL AND BETA-NAPHTHOFLAVONE, Method: PREINCUBATION): inactive; negative
- mutagenic call (Test System: E.COLI, Strain/Indicator: WP2UVRA, Metabolic Activation: NONE, Method: PREINCUBATION): inactive; negative
- mutagenic call (Test System: E.COLI, Strain/Indicator: WP2UVRA, Metabolic Activation: RAT LIVER S-9, PHENOBARBITAL AND BETA-NAPHTHOFLAVONE, Method: PREINCUBATION): inactive; negative

SMILES: ClCCOCCCl
- mutagenic call (End Point: IN VITRO CHROMOSOMAL ABERRATIONS, Test System: CHO CELLS, Metabolic Activation: NONE): inactive; negative
- mutagenic call (End Point: IN VITRO CHROMOSOMAL ABERRATIONS, Test System: CHO CELLS, Metabolic Activation: RAT, LIVER, S-9, AROCLOR 1254): inactive; negative
- mutagenic call (Test System: AMES SALMONELLA TYPHIMURIUM, Strain/Indicator: TA98, Metabolic Activation: HAMSTER, LIVER, S-9, PHENOBARBITAL AND BETA-NAPHTHOFLAVONE, Method: PREINCUBATION): inactive; negative
- mutagenic call [1]: inactive; negative
- mutagenic call (Test System: AMES SALMONELLA TYPHIMURIUM, Strain/Indicator: TA98, Metabolic Activation: RAT, LIVER, S-9, PHENOBARBITAL AND BETA-NAPHTHOFLAVONE, Method: PREINCUBATION): inactive; negative
- mutagenic call (Test System: AMES SALMONELLA TYPHIMURIUM, Strain/Indicator: TA100, Metabolic Activation: HAMSTER, LIVER, S-9, PHENOBARBITAL AND BETA-NAPHTHOFLAVONE, Method: PREINCUBATION): inactive; negative
- mutagenic call (Test System: AMES SALMONELLA TYPHIMURIUM, Strain/Indicator: TA100, Metabolic Activation: NONE, Method: DESICCATOR): active; positive
- mutagenic call [2]: inactive; negative
- mutagenic call (Test System: AMES SALMONELLA TYPHIMURIUM, Strain/Indicator: TA100, Metabolic Activation: RAT, LIVER, S-9, PHENOBARBITAL AND BETA-NAPHTHOFLAVONE, Method: PREINCUBATION): inactive; negative
- mutagenic call [3]: active; positive
- mutagenic call (Test System: AMES SALMONELLA TYPHIMURIUM, Strain/Indicator: TA1537, Metabolic Activation: HAMSTER, LIVER, S-9, PHENOBARBITAL AND BETA-NAPHTHOFLAVONE, Method: PREINCUBATION): inactive; negative
- mutagenic call [4]: inactive; negative
- mutagenic call (Test System: AMES SALMONELLA TYPHIMURIUM, Strain/Indicator: TA1537, Metabolic Activation: RAT, LIVER, S-9, PHENOBARBITAL AND BETA-NAPHTHOFLAVONE, Method: PREINCUBATION): inactive; negative
- mutagenic call (Test System: E. COLI, Strain/Indicator: WP2UVRA, Metabolic Activation: NONE, Method: PREINCUBATION): inactive; negative
- mutagenic call (Test System: E. COLI, Strain/Indicator: WP2UVRA, Metabolic Activation: RAT, LIVER, S-9, PHENOBARBITAL AND BETA-NAPHTHOFLAVONE, Method: PREINCUBATION): inactive; negative
